# From US11655235B2, “Pyrrolidine and piperidine compounds” (YUHAN CORPORATION, priority 2019, dated 2023)
# pIC50: −log10 of the molar value.
# Legend:
# DPP4 = DPP4 (Homo sapiens, UniProt P27487); test: DPP4 inhibition, fluorogenic substrate H-Gly-Pro-AMC; format: biochemical; design: purchased R&D Systems; conditions: recombinant human DPP4
# Recombinant human FAP = molecular target: T1, Recombinant human FAP (Homo sapiens, UniProt Q12884); test: FAP FRET assay, FGF21-sequence FRET peptide substrate; format: biochemical; conditions: FRET peptide with human FGF21 sequence, 6 μM, 37° C.
# T1 construct: purchased R&D systems
# T1 sequence (Q12884 1-760): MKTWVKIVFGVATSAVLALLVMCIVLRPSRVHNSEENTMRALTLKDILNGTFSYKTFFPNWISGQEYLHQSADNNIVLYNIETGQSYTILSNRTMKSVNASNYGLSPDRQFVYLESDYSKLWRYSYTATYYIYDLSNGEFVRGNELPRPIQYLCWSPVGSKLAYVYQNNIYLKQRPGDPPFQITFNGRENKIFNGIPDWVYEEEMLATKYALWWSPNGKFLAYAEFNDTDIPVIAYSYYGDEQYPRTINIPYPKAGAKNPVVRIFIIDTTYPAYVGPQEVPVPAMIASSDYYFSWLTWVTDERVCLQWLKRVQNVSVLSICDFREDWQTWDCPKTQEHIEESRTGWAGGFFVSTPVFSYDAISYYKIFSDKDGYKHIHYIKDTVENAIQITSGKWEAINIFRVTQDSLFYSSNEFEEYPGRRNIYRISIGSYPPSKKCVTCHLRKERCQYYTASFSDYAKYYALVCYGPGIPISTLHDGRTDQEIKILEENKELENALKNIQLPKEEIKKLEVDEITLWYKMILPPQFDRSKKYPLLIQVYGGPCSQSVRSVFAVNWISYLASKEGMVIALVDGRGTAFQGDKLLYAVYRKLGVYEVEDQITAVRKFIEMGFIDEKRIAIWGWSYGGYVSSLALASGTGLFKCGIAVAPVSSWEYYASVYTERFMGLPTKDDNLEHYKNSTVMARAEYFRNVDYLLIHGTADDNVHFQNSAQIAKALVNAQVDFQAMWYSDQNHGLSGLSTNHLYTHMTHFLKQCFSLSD
# Method: The compounds according to the present technology were evaluated in terms of the inhibitory effect on the activity of dipeptidyl peptidases including FAP by using a substrate producing fluorescent substances upon enzymatic decomposition. The test was conducted at 25° C. to get a final reaction volume of 100 μL in a 96 black well plate. […] Briefly, the test compounds were dissolved in dimethyl sulfoxide (DMSO) at a concentration of 20 mM and then subjected to serial dilution, thereby creating an 8 point curve. As for the control group, a 6 point curve created by serial dilution of Talabostat in the same buffer solution was used. Fluorescence intensity was measured using a microplate reader (Flexstation3, Molecular Devices) under the wavelength condition exciting at 380 nm and reading the emission at 460 nm. The inhibitory effect of the test compounds was measured as a decrease (%) in the signal rate as compared to the control group without any inhibitor. Data was fixed to a logistic model with four variables and IC50 value was calculated using GraphPad Prism program. For the FAP FRET assay, recombinant human FAP (R&D systems) was diluted with 50 mM HEPES (pH 7.2) buffer comprising 150 mM of sodium chloride, 0.1 mg/ml of bovine serum albumin (BSA) and 1 mM EDTA to be 10 ng per final reaction. The test compounds were subjected to serial dilution in a buffer under the condition containing up to 0.1% of DMSO. FRET peptides containing human FGF21 sequence ([…]) conjugated with HyLite Fluor 488 and dark quencher QXL 520 (Anaspec) was used as a substrate. By dissolving in DMSO and then diluting in the same buffer, the substrate was added to be 6 μM per final reaction. All reactions of FRET assay was conducted at 37° C.
# DPP4, sequence (P27487 whole entry): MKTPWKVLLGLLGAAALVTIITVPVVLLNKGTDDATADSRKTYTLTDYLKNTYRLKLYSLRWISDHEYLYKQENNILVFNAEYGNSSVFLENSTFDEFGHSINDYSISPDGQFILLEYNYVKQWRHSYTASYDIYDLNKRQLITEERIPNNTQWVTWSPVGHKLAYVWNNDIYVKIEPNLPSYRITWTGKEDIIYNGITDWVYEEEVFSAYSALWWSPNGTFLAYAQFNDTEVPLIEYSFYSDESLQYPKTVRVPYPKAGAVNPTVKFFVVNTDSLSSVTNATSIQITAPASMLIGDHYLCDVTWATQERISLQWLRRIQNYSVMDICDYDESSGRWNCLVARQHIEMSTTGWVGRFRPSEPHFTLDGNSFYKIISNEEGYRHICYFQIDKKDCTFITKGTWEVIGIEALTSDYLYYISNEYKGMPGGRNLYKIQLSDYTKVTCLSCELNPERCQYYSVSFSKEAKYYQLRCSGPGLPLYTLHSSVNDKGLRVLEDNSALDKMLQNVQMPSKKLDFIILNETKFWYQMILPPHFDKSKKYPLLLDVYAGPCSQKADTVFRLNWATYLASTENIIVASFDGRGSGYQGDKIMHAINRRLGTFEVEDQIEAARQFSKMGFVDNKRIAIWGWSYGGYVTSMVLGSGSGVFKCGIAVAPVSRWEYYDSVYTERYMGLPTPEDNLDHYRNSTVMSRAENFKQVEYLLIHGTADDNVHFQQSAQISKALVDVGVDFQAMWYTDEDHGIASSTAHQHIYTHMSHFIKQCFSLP
pIC50 (DPP4),pIC50 (Recombinant human FAP),Structure (SMILES)
5.67,7.69,"CN(c1cc(F)cc2ncccc12)[C@H]1CCN(CC(=O)N2C[C@@H](F)C[C@H]2C#N)C1 [Example 157, (2S,4S)-4-fluoro-1-(2-((S)-3-((7-fluoroquinolin-5-yl)(methyl)amino)pyrrolidin-1-yl)acetyl)pyrrolidine-2-carbonitrile]"
5.82,7.65,"COc1ccc2ncccc2c1N[C@@H]1CCN(CC(=O)N2C[C@@H](F)C[C@H]2C#N)C1 [Example 176, (2S,4S)-4-fluoro-1-[2-[(3R)-3-[(6-methoxy-5-quinolyl)amino]pyrrolidin-1-yl]acetyl]pyrrolidine-2-carbonitrile]"
4.75,7.62,"Cc1ccc2nccc(N[C@@H]3CCN(CC(=O)N4C[C@@H](F)C[C@H]4C#N)C3)c2c1 [Example 187, (2S,4S)-4-fluoro-1-[2-[(3R)-3-[(6-methyl-4-quinolyl)amino]pyrrolidin-1-yl]acetyl]pyrrolidine-2-carbonitrile]"
4.82,7.67,"COc1ccc2nccc(N[C@@H]3CCN(CC(=O)N4C[C@@H](F)C[C@H]4C#N)C3)c2c1 [Example 188, (2S,4S)-4-fluoro-1-[2-[(3R)-3-[(6-methoxy-4-quinolyl)amino]pyrrolidin-1-yl]acetyl]pyrrolidine-2-carbonitrile]"
5.49,7.71,"N#C[C@@H]1C[C@H](F)CN1C(=O)CN1CC[C@@H](Nc2ccnc3ccc(F)cc23)C1 [Example 191, (2S,4S)-4-fluoro-1-[2-[(3R)-3-[(6-fluoro-4-quinolyl)amino]pyrrolidin-1-yl]acetyl]pyrrolidine-2-carbonitrile]"
5.26,7.81,"N#C[C@@H]1C[C@H](F)CN1C(=O)CN1CC[C@@H](Nc2ccnc3ccc(Cl)cc23)C1 [Example 192, (2S,4S)-4-fluoro-1-[2-[(3R)-3-[(6-chloro-4-quinolyl)amino]pyrrolidin-1-yl]acetyl]pyrrolidine-2-carbonitrile]"
5.04,7.61,"COc1ccc2c(N[C@@H]3CCN(CC(=O)N4C[C@@H](F)C[C@H]4C#N)C3)ccnc2c1 [Example 193, (2S,4S)-4-fluoro-1-[2-[(3R)-3-[(7-methoxy-4-quinolyl)amino]pyrrolidin-1-yl]acetyl]pyrrolidine-2-carbonitrile]"
4.71,7.96,"N#C[C@@H]1C[C@H](F)CN1C(=O)CN1CC[C@@H](Nc2ccnc3c(F)cccc23)C1 [Example 194, (2S,4S)-4-fluoro-1-[2-[(3R)-3-[(8-fluoro-4-quinolyl)amino]pyrrolidin-1-yl]acetyl]pyrrolidine-2-carbonitrile]"
4.85,7.66,"COc1cccc2c(N[C@@H]3CCN(CC(=O)N4C[C@@H](F)C[C@H]4C#N)C3)ccnc12 [Example 195, (2S,4S)-4-fluoro-1-[2-[(3R)-3-[(8-methoxy-4-quinolyl)amino]pyrrolidin-1-yl]acetyl]pyrrolidine-2-carbonitrile]"
5.42,8.13,"N#C[C@@H]1C[C@H](F)CN1C(=O)CN1CC[C@@H](Nc2ccnc3c(C(F)(F)F)cccc23)C1 [Example 196, (2S,4S)-4-fluoro-1-[2-[(3R)-3-[[8-(trifluoromethyl)-4-quinolyl]amino]pyrrolidin-1-yl]acetyl]pyrrolidine-2-carbonitrile]"
4.54,8.06,"N#C[C@@H]1CCCN1C(=O)CN1CC[C@@H](Nc2ccc3nc(C(F)(F)F)ccc3c2)C1 [Example 217, (2S)-1-[2-[(3R)-3-[[2-(trifluoromethyl)-6-quinolyl]amino]pyrrolidin-1-yl]acetyl]pyrrolidine-2-carbonitrile]"
4.76,7.58,"Cc1cnc2ccc(N[C@@H]3CCN(CC(=O)N4CCC[C@H]4C#N)C3)cc2c1 [Example 218, (2S)-1-[2-[(3R)-3-[(3-methyl-6-quinolyl)amino]pyrrolidin-1-yl]acetyl]pyrrolidine-2-carbonitrile]"
4.88,7.77,"COc1ccnc2ccc(N[C@@H]3CCN(CC(=O)N4CCC[C@H]4C#N)C3)cc12 [Example 219, (2S)-1-[2-[(3R)-3-[(4-methoxy-6-quinolyl)amino]pyrrolidin-1-yl]acetyl]pyrrolidine-2-carbonitrile]"
4.88,8.24,"Cc1cc(N[C@@H]2CCN(CC(=O)N3CCC[C@H]3C#N)C2)cc2cccnc12 [Example 220, (2S)-1-[2-[(3R)-3-[(8-methyl-6-quinolyl)amino]pyrrolidin-1-yl]acetyl]pyrrolidine-2-carbonitrile]"
4.96,8.12,"N#C[C@@H]1CCCN1C(=O)CN1CC[C@@H](Nc2cc(F)c3ncccc3c2)C1 [Example 221, (2S)-1-[2-[(3R)-3-[(8-fluoro-6-quinolyl)amino]pyrrolidin-1-yl]acetyl]pyrrolidine-2-carbonitrile]"
4.93,8.68,"N#C[C@@H]1CCCN1C(=O)CN1CC[C@@H](Nc2cc(Cl)c3ncccc3c2)C1 [Example 222, (2S)-1-[2-[(3R)-3-[(8-chloro-6-quinolyl)amino]pyrrolidin-1-yl]acetyl]pyrrolidine-2-carbonitrile]"
4.03,7.88,"Cc1ccc2nccc(N[C@@H]3CCN(CC(=O)N4CCC[C@H]4C#N)C3)c2c1 [Example 223, (2S)-1-[2-[(3R)-3-[(6-methyl-4-quinolyl)amino]pyrrolidin-1-yl]acetyl]pyrrolidine-2-carbonitrile]"
4.27,8.00,"COc1ccc2nccc(N[C@@H]3CCN(CC(=O)N4CCC[C@H]4C#N)C3)c2c1 [Example 224, (2S)-1-[2-[(3R)-3-[(6-methoxy-4-quinolyl)amino]pyrrolidin-1-yl]acetyl]pyrrolidine-2-carbonitrile]"
4.47,8.14,"N#C[C@@H]1CCCN1C(=O)CN1CC[C@@H](Nc2ccnc3ccc(F)cc23)C1 [Example 225, (2S)-1-[2-[(3R)-3-[(6-fluoro-4-quinolyl)amino]pyrrolidin-1-yl]acetyl]pyrrolidine-2-carbonitrile]"
4.42,8.32,"N#C[C@@H]1CCCN1C(=O)CN1CC[C@@H](Nc2ccnc3ccc(Cl)cc23)C1 [Example 226, (2S)-1-[2-[(3R)-3-[(6-chloro-4-quinolyl)amino]pyrrolidin-1-yl]acetyl]pyrrolidine-2-carbonitrile]"
4.50,8.14,"N#C[C@@H]1CCCN1C(=O)CN1CC[C@@H](Nc2ccnc3c(F)cccc23)C1 [Example 227, (2S)-1-[2-[(3R)-3-[(8-fluoro-4-quinolyl)amino]pyrrolidin-1-yl]acetyl]pyrrolidine-2-carbonitrile]"
5.55,7.79,"N#C[C@@H]1C[C@H](F)CN1C(=O)CN1CC[C@H](Nc2cnc3ncccc3c2)C1 [Example 272, (2S,4S)-4-fluoro-1-[2-[(3S)-3-(1,8-naphthyridin-3-ylamino)pyrrolidin-1-yl]acetyl]pyrrolidine-2-carbonitrile]"
6.28,7.72,"N#C[C@@H]1C[C@H](F)CN1C(=O)CN1CC[C@H](Nc2cnc3nc(Cl)ccc3c2)C1 [Example 273, (2S,4S)-4-fluoro-1-[2-[(3S)-3-[(7-chloro-1,8-naphthyridin-3-yl)amino]pyrrolidin-1-yl]acetyl]pyrrolidine-2-carbonitrile]"
4.85,7.44,"CN(C(=O)c1ccc(N[C@H]2CCN(CC(=O)N3CCC[C@H]3C#N)C2)c2cccnc12)c1ccccc1 [Example 289, N-methyl-N-phenyl-5-[[(3S)-1-[2-oxo-2-[(2S)-2-cyanopyrrolidin-1-yl]ethyl]pyrrolidin-3-yl]amino]quinoline-8-carboxamide]"
